# Data: patent US12077503B2, “Substituted cyclic amides and their use as herbicides” (FMC CORPORATION, priority 2015, dated 2024)
# Legend:
# Format in all cases: in vivo
# [1] = test system: barnyardgrass (Echinochloa crus-galli); assay: Test B flooded paddy test; settings: Echinochloa crus-galli, Flood, 250 g ai/ha; scale of 0 to 100 where 0 is no effect and 100 is complete control; read-out: Barnyardgrass plant response rating
# Method in brief: (§1)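 Flooding to 3 cm over soil accompanied treatment, which consisted of adding compound to the standing water around 2-leaf plants; depth was then maintained. Visual assessment versus controls followed at 13 to 15 d (scale 0–100, 0 meaning no effect).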
# [2] = test system: ducksalad (Heteranthera limosa); assay: Test B flooded paddy test; settings: Heteranthera limosa, Flood, 250 g ai/ha; scale of 0 to 100 where 0 is no effect and 100 is complete control; read-out: Ducksalad plant response rating
# Method in brief: as §1
# rice (Oryra sativa) = assay: Test B flooded paddy test; settings: Oryza sativa, Flood, 250 g ai/ha; scale of 0 to 100 where 0 is no effect and 100 is complete control; read-out: Rice plant response rating
# Method in brief: as §1
# [3] = test system: sedge, umbrella (small-flower umbrella sedge, Cyperus difformis); assay: Test B flooded paddy test; settings: Cyperus difformis, Flood, 250 g ai/ha; scale of 0 to 100 where 0 is no effect and 100 is complete control; read-out: Sedge, Umbrella plant response rating
# Method in brief: as §1
# [4] = test system: pigweed (Amaranthus retroflexus); assay: Test A preemergence; settings: Amaranthus retroflexus, pre-emergence, 240 h
# [5] = test system: barnyardgrass (Echinochloa crus-galli); assay: Test A preemergence; settings: Echinochloa crus-galli, pre-emergence, 240 h
# Method in brief: (§2)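 Compounds were formulated in a non-phytotoxic solvent mixture with surfactant and applied as a preemergence directed soil spray after seeding, or sprayed postemergence over plants 2 to 10 cm tall at the one- to two-leaf stage. Evaluation after about 10 d compared treated with untreated controls, using a scale from 0 (no effect) to 100 (complete control).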
# Kochia (Kochia scoparia) [6] = assay: Test A preemergence; settings: Bassia scoparia, pre-emergence, 240 h
# Method in brief: as §2
# [7] = test system: ragweed (common ragweed, Ambrosia elatior); assay: Test A preemergence; settings: Ambrosia artemisiifolia, pre-emergence, 240 h
# Method in brief: as §2
# [8] = test system: giant foxtail (Setaria faberii); assay: Test A preemergence; settings: Setaria faberi, pre-emergence, 240 h
# Method in brief: as §2
# [9] = test system: ryegrass, Italian (Italian ryegrass, Lolium multiflorum); assay: Test A preemergence; settings: Lolium multiflorum, pre-emergence, 240 h
# Method in brief: as §2
# [10] = test system: pigweed (Amaranthus retroflexus); assay: Test A postemergence; settings: Amaranthus retroflexus, post-emergence, 240 h, 125 g ai/ha, Postemergence; visual injury after approximately 10 d; 0 to 100 scale where 0 is no effect and 100 is complete control; read-out: Plant response rating, Pigweed
# Method in brief: as §2
# [11] = test system: Galium (catchweed bedstraw, Galium aparine); assay: Test A postemergence; settings: Galium, post-emergence, 240 h, 125 g ai/ha, Postemergence; visual injury after approximately 10 d; 0 to 100 scale where 0 is no effect and 100 is complete control; read-out: Plant response rating, Galium
# Method in brief: as §2
# [12] = test system: barnyardgrass (Echinochloa crus-galli); assay: Test A postemergence; settings: Echinochloa crus-galli, post-emergence, 240 h, 125 g ai/ha, Postemergence; visual injury after approximately 10 d; 0 to 100 scale where 0 is no effect and 100 is complete control; read-out: Plant response rating, Barnyardgrass
# Method in brief: as §2
# Kochia (Kochia scoparia) [13] = assay: Test A postemergence; settings: Bassia scoparia, post-emergence, 240 h, 125 g ai/ha, Postemergence; visual injury after approximately 10 d; 0 to 100 scale where 0 is no effect and 100 is complete control; read-out: Plant response rating, Kochia
# Method in brief: as §2
# [14] = test system: ragweed (common ragweed, Ambrosia elatior); assay: Test A postemergence; settings: Ambrosia artemisiifolia, post-emergence, 240 h, 125 g ai/ha, Postemergence; visual injury after approximately 10 d; 0 to 100 scale where 0 is no effect and 100 is complete control; read-out: Plant response rating, Ragweed
# Method in brief: as §2
# [15] = test system: giant foxtail (Setaria faberii); assay: Test A postemergence; settings: Setaria faberi, post-emergence, 240 h, 125 g ai/ha, Postemergence; visual injury after approximately 10 d; 0 to 100 scale where 0 is no effect and 100 is complete control; read-out: Plant response rating, Foxtail, Giant
# Method in brief: as §2
# [16] = test system: wheat (Triticum aestivum); assay: Test A postemergence; settings: Triticum aestivum, post-emergence, 240 h, 125 g ai/ha, Postemergence; visual injury after approximately 10 d; 0 to 100 scale where 0 is no effect and 100 is complete control; read-out: Plant response rating, Wheat
# Method in brief: as §2
# corn (Zea mays) = assay: Test A postemergence; settings: Zea mays, post-emergence, 240 h, 125 g ai/ha, Postemergence; visual injury after approximately 10 d; 0 to 100 scale where 0 is no effect and 100 is complete control
# Method in brief: as §2
# [17] = test system: blackgrass (Alopecurus myosuroides); assay: Test A postemergence; settings: Alopecurus myosuroides, post-emergence, 240 h, 125 g ai/ha, Postemergence; visual injury after approximately 10 d; 0 to 100 scale where 0 is no effect and 100 is complete control; read-out: Plant response rating, Blackgrass
# Method in brief: as §2
# [18] = test system: ryegrass, Italian (Italian ryegrass, Lolium multiflorum); assay: Test A postemergence; settings: Lolium multiflorum, post-emergence, 240 h, 125 g ai/ha, Postemergence; visual injury after approximately 10 d; 0 to 100 scale where 0 is no effect and 100 is complete control; read-out: Plant response rating, Ryegrass, Italian
# Method in brief: as §2
smiles,measurement,setting,value
CC(C)Oc1ccc([C@H]2CN(C)C(=O)[C@@H]2C(=O)Nc2cccc(F)c2F)cc1 [Compound 953],pest or weed control at 250 g/ha,[1],20%
same,pest or weed control at 250 g/ha,[2],40%
same,pest or weed control at 250 g/ha,rice (Oryra sativa),0%
same,pest or weed control at 250 g/ha,[3],0%
same,pest or weed control at 125 g/ha,"[4]; 125 g ai/ha, Preemergence, visual injury rating after approximately 10 d, read-out: Pigweed plant response rating (0 to 100 scale, 0 is no effect, 100 is complete control)",0%
same,pest or weed control at 500 g/ha,"[4]; 500 g ai/ha, preemergence, visual injury rating about 10 d after treatment, 0 to 100 scale (0 no effect, 100 complete control), read-out: Pigweed plant response rating",0%
same,pest or weed control at 125 g/ha,"[5]; 125 g ai/ha, Preemergence, visual injury rating after approximately 10 d, read-out: Barnyardgrass plant response rating (0 to 100 scale, 0 is no effect, 100 is complete control)",90%
same,pest or weed control at 500 g/ha,"[5]; 500 g ai/ha, preemergence, visual injury rating about 10 d after treatment, 0 to 100 scale (0 no effect, 100 complete control), read-out: Barnyardgrass plant response rating",90%
same,pest or weed control at 125 g/ha,"Kochia (Kochia scoparia) [6]; 125 g ai/ha, Preemergence, visual injury rating after approximately 10 d, read-out: Kochia plant response rating (0 to 100 scale, 0 is no effect, 100 is complete control)",60%
same,pest or weed control at 500 g/ha,"Kochia (Kochia scoparia) [6]; 500 g ai/ha, preemergence, visual injury rating about 10 d after treatment, 0 to 100 scale (0 no effect, 100 complete control), read-out: Kochia plant response rating",60%
same,pest or weed control at 125 g/ha,"[7]; 125 g ai/ha, Preemergence, visual injury rating after approximately 10 d, read-out: Ragweed plant response rating (0 to 100 scale, 0 is no effect, 100 is complete control)",0%
same,pest or weed control at 500 g/ha,"[7]; 500 g ai/ha, preemergence, visual injury rating about 10 d after treatment, 0 to 100 scale (0 no effect, 100 complete control), read-out: Ragweed plant response rating",0%
same,pest or weed control at 125 g/ha,"[8]; 125 g ai/ha, Preemergence, visual injury rating after approximately 10 d, read-out: Foxtail, Giant plant response rating (0 to 100 scale, 0 is no effect, 100 is complete control)",90%
same,pest or weed control at 500 g/ha,"[8]; 500 g ai/ha, preemergence, visual injury rating about 10 d after treatment, 0 to 100 scale (0 no effect, 100 complete control), read-out: Foxtail, Giant plant response rating",100%
same,pest or weed control at 125 g/ha,"[9]; 125 g ai/ha, Preemergence, visual injury rating after approximately 10 d, read-out: Ryegrass, Italian plant response rating (0 to 100 scale, 0 is no effect, 100 is complete control)",0%
same,pest or weed control at 500 g/ha,"[9]; 500 g ai/ha, preemergence, visual injury rating about 10 d after treatment, 0 to 100 scale (0 no effect, 100 complete control), read-out: Ryegrass, Italian plant response rating",60%
same,pest or weed control at 125 g/ha,[10],0%
same,pest or weed control at 125 g/ha,[11],20%
same,pest or weed control at 125 g/ha,[12],90%
same,pest or weed control at 125 g/ha,Kochia (Kochia scoparia) [13],30%
same,pest or weed control at 125 g/ha,[14],0%
same,pest or weed control at 125 g/ha,[15],90%
same,plant injury at 125 g/ha,[16],0%
same,"Corn plant response rating (crop injury, 0 = no effect, 100 = complete kill) at 125 g/ha",corn (Zea mays),0%
same,pest or weed control at 125 g/ha,[17],0%
same,pest or weed control at 125 g/ha,[18],0%
